Experimental findings from PMC7026480, “Discovery of Multitarget-Directed Ligands Against Influenza A Virus From Compound Yizhihao Through a Predictive System for Compound-Protein Interactions” (Frontiers in Cellular and Infection Microbiology, 2020) are described below.

Like-named read-outs stand apart in the source and are kept apart here.

The subject of one experiment is TNF-α. The class given is cell-based, human.
Experiment [1] concerns the target neuraminidase (NA) of A/PR/8/34 (H1N1) (Influenza A virus, UniProt P03468). The experiment is described as follows: biochemical.
In experiment [2] the test system is A/Minfang/151/2000 (wild-type H3N2). The experiment in a line: microbe, parasite or virus in culture. It counts as cell-based. Conditions: Influenza A virus, H3N2, MDCK.
Experiment [3] deals with A/Puerto Rico/8/34 (wild-type H1N1). The experiment in a line: microbe, parasite or virus in culture. The class given is cell-based. Conditions: Influenza A virus.
[4] abbreviates: IC50, NA inhibition test, A/PR/8/34 (H1N1).
Where [5] appears, read: read-out: IC50, CPE reduction, A/Minfang/151/2000 (H3N2), Drug administration after virus inoculation.
[6] abbreviates: read-out: IC50, CPE reduction, A/Minfang/151/2000 (H3N2), Pre-incubation of virus and drug.
The mark [7] stands for this setting: read-out: IC50, CPE reduction, A/Minfang/151/2000 (H3N2), Simultaneous action of virus and drug.
Where [8] appears, read: read-out: IC50, CPE reduction, A/Minfang/151/2000 (H3N2), Virus inoculation after drug administration.
Where [9] appears, read: H1N1 / PR/8, MDCK, read-out: IC50, CPE reduction, A/PR/8/34 (H1N1), Drug administration after virus inoculation.
Where [10] appears, read: H1N1 / PR/8, MDCK, read-out: IC50, CPE reduction, A/PR/8/34 (H1N1), Pre-incubation of virus and drug.
Where [11] appears, read: H1N1 / PR/8, MDCK, read-out: IC50, CPE reduction, A/PR/8/34 (H1N1), Simultaneous action of virus and drug.
The mark [12] stands for this setting: H1N1 / PR/8, MDCK, read-out: IC50, CPE reduction, A/PR/8/34 (H1N1), Virus inoculation after drug administration.
Setting [13] is: read-out: IC50, CPE reduction, H3N2 wild-type, in the four modes of action tested.
Setting [14] is: H1N1, MDCK, read-out: IC50, CPE reduction, H1N1 wild-type, in the four modes of action tested.
Throughout, for TNF-α expression in cell culture supernatant in comparison with the model group: test concentration or dose not given here.

Chain of neuraminidase (NA) of A/PR/8/34 (H1N1) (P03468 whole entry, looked up): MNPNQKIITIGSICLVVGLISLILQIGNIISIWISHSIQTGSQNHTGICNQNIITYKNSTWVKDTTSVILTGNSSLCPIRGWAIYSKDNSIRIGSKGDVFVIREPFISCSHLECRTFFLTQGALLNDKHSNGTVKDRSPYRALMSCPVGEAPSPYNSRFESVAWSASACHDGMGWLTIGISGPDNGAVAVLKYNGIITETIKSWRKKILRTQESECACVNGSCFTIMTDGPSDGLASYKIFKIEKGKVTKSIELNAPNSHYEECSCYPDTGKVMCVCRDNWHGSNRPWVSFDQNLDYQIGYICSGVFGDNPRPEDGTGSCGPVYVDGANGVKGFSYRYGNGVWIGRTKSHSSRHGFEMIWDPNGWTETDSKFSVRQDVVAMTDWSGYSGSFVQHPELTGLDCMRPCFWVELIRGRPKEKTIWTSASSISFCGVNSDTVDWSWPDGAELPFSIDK

On to `O=C(/C=C/c1ccc(O)c(O)c1)O[C@@H]1C[C@](O)(C(=O)O)C[C@@H](O)[C@H]1O` [Chlorogenic acid], for which the “TNF-α expression in cell culture supernatant in comparison with the model group” value (“TNF-α expression” below) in the experiment with TNF-α is on record as “significantly less TNF-α”. This compound also yielded an IC50 in experiment [1] (setting [4]) of 64.6 ± 6.97 µM.

On to cedar acid, for which the “TNF-α expression” value with TNF-α is listed as “significantly less TNF-α”.

For `O=c1cc(-c2ccc(O)c(O)c2)oc2c([C@@H]3O[C@H](CO)[C@@H](O)[C@H](O)[C@H]3O)c(O)cc(O)c12` [Orientin], the “TNF-α expression” value in the experiment on TNF-α was “significantly less TNF-α”. In experiment [1] (setting [4]), this compound came in with an IC50 of 53.7 ± 9.98 µM.

With `O=C1c2ccccc2-n2c1nc1ccccc1c2=O` [Tryptanthrin], the IC50 in experiment [2] (setting [5]) was more than 100 µM; in experiment [2] (setting [6]), 17.7 ± 1.74 µM; in experiment [2] (setting [7]) it was 31.8 ± 11.6 µM; in experiment [2] (setting [8]), 76.3 ± 3.4 µM; in experiment [3] (setting [9]), more than 100 µM; in experiment [3] (setting [10]), 72 ± 23.6 µM. Also, the IC50 in experiment [3] (setting [11]) and in experiment [3] (setting [12]) was more than 100 µM throughout. Also, the “TNF-α expression” value with TNF-α is “except tryptanthrin, were associated with significantly less TNF-α”.

Turning to `C=CCC(=NOS(=O)(=O)O)S[C@@H]1O[C@H](CO)[C@@H](O)[C@H](O)[C@H]1O` (stereo in doubt) [sinigrin], the “TNF-α expression” value in the experiment on TNF-α is “significantly less TNF-α”.

`CCOC(=O)C1=C[C@@H](OC(CC)CC)[C@H](NC(C)=O)[C@@H](N)C1` [Oseltamivir, oseltamivir phosphate, reference compound]: the IC50 in experiment [2] (setting [5]) is 77.9 ± 22.1 µM; in experiment [2] (setting [6]), 6.25 ± 2.6 µM; in experiment [2] (setting [7]), 8.47 ± 1.73 µM; in experiment [2] (setting [8]), 54.5 ± 14.2 µM; in experiment [2] (setting [13]), less than 100 µM; in experiment [3] (setting [14]), less than 100 µM. For the same compound, the IC50 in experiment [3] (setting [9]) is 83.4 ± 15.6 µM; in experiment [3] (setting [10]), 74.9 ± 20.7 µM; in experiment [3] (setting [11]) it was 4.45 ± 0.24 µM; in experiment [3] (setting [12]) it was 11.4 ± 7.44 µM.

For the compound `COc1ccc(-c2cc(=O)c3c(OC)c(OC)c(OC)cc3o2)cc1OC` [sinensetin], in the experiment with TNF-α, the “TNF-α expression” value is on record as “significantly less TNF-α”.

In the case of `C=C[C@@H]1CNC(=S)O1` [Epigoitrin], the “TNF-α expression” value in the experiment on TNF-α is given as “significantly less TNF-α”. Also, in experiment [1], the IC50 was more than 100 µM.

With `COc1ccc(-c2cc(=O)c3c(O)cc(O)cc3o2)cc1` [Acacetin], the IC50 was more than 100 µM in experiment [2] (setting [5]); 12.5 ± 5.46 µM in experiment [2] (setting [6]); 20.5 ± 0.86 µM in experiment [2] (setting [7]); 72.5 ± 11.7 µM in experiment [2] (setting [8]); 62 ± 5.91 µM in experiment [3] (setting [9]); 77.4 ± 25.7 µM in experiment [3] (setting [10]). Moreover, the IC50 in experiment [3] (setting [11]) and in experiment [3] (setting [12]) was more than 100 µM in each case.

On to `O=c1c(O)c(-c2ccc(O)c(O)c2)oc2cc(O)cc(O)c12` [Quercetin], for which the IC50 was more than 100 µM in experiment [2] (setting [5]); 9.99 ± 2.84 µM in experiment [2] (setting [6]); 18.3 ± 3.52 µM in experiment [2] (setting [7]); more than 100 µM in experiment [2] (setting [8]); more than 100 µM in experiment [3] (setting [9]); 8.59 ± 1.34 µM in experiment [3] (setting [10]). Besides, the IC50 is 5.41 ± 0.14 µM in experiment [3] (setting [11]) and more than 100 µM in experiment [3] (setting [12]).

Take `COc1ccc(-c2cc(=O)c3c(O)cc(O[C@@H]4O[C@H](CO[C@@H]5O[C@@H](C)[C@H](O)[C@@H](O)[C@H]5O)[C@@H](O)[C@H](O)[C@H]4O)cc3o2)cc1` [linarin]: the “TNF-α expression” value in the experiment on TNF-α was “significantly less TNF-α”.

Regarding `Cc1cc(O)c2c(c1)C(=O)c1cc(O)cc(O)c1C2=O` [Emodin], the IC50 was more than 100 µM in experiment [2] (setting [5]); 18.2 ± 1.02 µM in experiment [2] (setting [6]); 55.9 ± 6 µM in experiment [2] (setting [7]); more than 100 µM in experiment [2] (setting [8]); more than 100 µM in experiment [3] (setting [9]); 55.9 ± 9.8 µM in experiment [3] (setting [10]). Also, the results for the IC50 in experiment [3] (setting [11]) and in experiment [3] (setting [12]) were 6.53 ± 0.29 µM and more than 100 µM, respectively.

With `O=C(/C=C/c1ccc(O)cc1)c1ccc(O)cc1O` [isoliquiritigenin], in the experiment on TNF-α, the “TNF-α expression” value was “significantly less TNF-α” and the “effect on TNF-α compared with positive drugs” value was “greater effect on TNF-α than positive drugs”.

For `O=c1cc(-c2ccc(O)c(O)c2)oc2cc(O)cc(O)c12` [Luteolin], the IC50 was more than 100 µM in experiment [2] (setting [5]); 44.7 ± 20 µM in experiment [2] (setting [6]); more than 100 µM in experiment [2] (setting [7]); more than 100 µM in experiment [2] (setting [8]); more than 100 µM in experiment [3] (setting [9]); 4.53 ± 0.92 µM in experiment [3] (setting [10]). Besides, the IC50 in experiment [3] (setting [11]) is 7.08 ± 0.3 µM; in experiment [3] (setting [12]) it was more than 100 µM. Moreover, in the experiment with TNF-α, the “TNF-α expression” value was “significantly less TNF-α”. The “effect on TNF-α compared with positive drugs” value in the experiment with TNF-α was “greater effect on TNF-α than positive drugs”.

As to `O=C1Nc2ccccc2/C1=C1/Nc2ccccc2C1=O` [Indirubin], the IC50 in experiment [2] (setting [5]) is more than 100 µM; in experiment [2] (setting [6]) it was more than 100 µM; in experiment [2] (setting [7]), more than 100 µM; in experiment [2] (setting [8]) it was 52.6 ± 27.4 µM; in experiment [3] (setting [9]) it was more than 100 µM; in experiment [3] (setting [10]) it was more than 100 µM. Besides, the IC50 in experiment [3] (setting [11]) and in experiment [3] (setting [12]) was more than 100 µM throughout.

Regarding `O=c1cc(-c2ccc(O)cc2)oc2cc(O)cc(O)c12` [Apigenin], the IC50 in experiment [2] (setting [5]) was more than 100 µM; in experiment [2] (setting [6]) it was 9.28 ± 2.03 µM; in experiment [2] (setting [7]), 15.8 ± 1 µM; in experiment [2] (setting [8]), more than 100 µM; in experiment [3] (setting [9]) it was more than 100 µM; in experiment [3] (setting [10]) it was 16.7 ± 1.77 µM. Moreover, the figures for the IC50 in experiment [3] (setting [11]) and in experiment [3] (setting [12]) were 9.06 ± 0.41 µM and more than 100 µM, respectively.

As for `C=C(C(=O)O)[C@H]1CC[C@H](C)[C@@H]2CC(=O)C(C)=C2C1` (stereo in doubt) [Rupestonic acid], the “TNF-α expression” value in the experiment on TNF-α was “significantly less TNF-α”. In addition, the IC50 in experiment [1] (read-out: IC50, NA inhibition test, A/PR/8/34 (H1N1)) was more than 100 µM.

For `NC(=O)c1ncn([C@@H]2O[C@H](CO)[C@@H](O)[C@H]2O)n1` [Ribavirin, ribavirin, reference compound], the IC50 in experiment [2] (setting [5]) is 22.5 ± 6.16 µM; in experiment [2] (setting [6]) it was 9.18 ± 0.99 µM; in experiment [2] (setting [7]) it was 21.7 ± 0.97 µM; in experiment [2] (setting [8]), 62.5 ± 16.2 µM; in experiment [2] (setting [13]) it was less than 100 µM; in experiment [3] (setting [14]), less than 100 µM. For the same compound, the IC50 turned out to be 16.1 ± 1.47 µM in experiment [3] (setting [9]), 10.4 ± 2.19 µM in experiment [3] (setting [10]), 16.4 ± 2.95 µM in experiment [3] (setting [11]) and 47.5 ± 7.94 µM in experiment [3] (setting [12]).
